Test results reported in patent US12319672B2, “Alpha-D-galactopyranoside derivatives” (Idorsia Pharmaceuticals Ltd, priority 2019, dated 2025).
pIC50: −log10 of the molar value.

Experiments:
human Gal-1 (hGal-1) = assay: Competitive binding assay: binding of biotinylated hGal-1 to microplate-adsorbed asialofetuin (ASF); details: Activities on hGal-1; mean values of several measurements
In short: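 For hGal-1, a variant with all six cysteines replaced by serines is preferred. Either galectin, biotinylated at 300-1000 ng/mL, competes with compound for microplate-bound ASF over 3 h at 4° C; peroxidase/ABTS detection gives IC50, averaged.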

human Gal-3 (hGal-3) = human Gal-3 (hGal-3) (Homo sapiens (Human), UniProt P17931); assay: Competitive binding assay: binding of biotinylated hGal-3 to microplate-adsorbed asialofetuin (ASF); details: Activity on hGal-3; mean values of several measurements
In short: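 Compounds in DMSO dilution series competed with 300-1000 ng/mL biotinylated hGal-3 for asialofetuin adsorbed on the plate (3 h, 4° C). Streptavidin-peroxidase at 80 ng/mL (1 h, 4° C) with ABTS gave a spectrophotometric read-out, and IC50 was reported as the mean of repeat runs.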

human Gal-3 (hGal-3), sequence (P17931 whole entry): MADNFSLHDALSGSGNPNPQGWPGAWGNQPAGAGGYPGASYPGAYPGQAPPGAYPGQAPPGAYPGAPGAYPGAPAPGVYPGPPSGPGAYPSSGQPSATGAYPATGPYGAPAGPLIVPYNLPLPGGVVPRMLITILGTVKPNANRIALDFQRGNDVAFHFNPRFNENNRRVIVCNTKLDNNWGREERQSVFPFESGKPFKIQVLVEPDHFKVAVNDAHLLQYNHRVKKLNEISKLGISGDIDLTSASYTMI
human Gal-1 (hGal-1), sequence (P09382 2-135 limits assumed): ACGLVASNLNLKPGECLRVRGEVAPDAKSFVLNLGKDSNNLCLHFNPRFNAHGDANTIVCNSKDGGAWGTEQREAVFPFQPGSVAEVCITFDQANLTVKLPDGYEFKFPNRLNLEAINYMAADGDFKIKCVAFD

| Compound | pIC50 (human Gal-1 (hGal-1)) | pIC50 (human Gal-3 (hGal-3)) |
| --- | --- | --- |
| CC(C)(C)c1cc(C[C@H]2O[C@H](CO)[C@H](O)[C@H](n3cc(-c4ccc(F)c(F)c4F)nn3)[C@H]2O)on1 [Example 2.49, (2R,3R,4R,5R,6R)-2-((3-(tert-butyl)isoxazol-5-yl)methyl)-6-(hydroxymethyl)-4-(4-(2,3,4-trifluorophenyl)-1H-1,2,3-triazol-1-yl)tetrahydro-2H-pyran-3,5-diol] | 6.19 | 7.28 |
| Cc1ccc(-c2cn([C@H]3[C@@H](O)[C@@H](CO)O[C@H](Cc4cc(C(C)(C)C)no4)[C@@H]3O)nn2)c(F)c1F [Example 2.50, (2R,3R,4R,5R,6R)-2-((3-(tert-butyl)isoxazol-5-yl)methyl)-4-(4-(2,3-difluoro-4-methylphenyl)-1H-1,2,3-triazol-1-yl)-6-(hydroxymethyl)tetrahydro-2H-pyran-3,5-diol] | 5.17 | 6.89 |
| CCNC(=O)O[C@@H]1[C@@H](n2cc(-c3ccc(C)c(F)c3F)nn2)[C@@H](O)[C@@H](CO)O[C@@H]1Cc1cc(C(C)(C)C)no1 [Example 2.51, (2R,3R,4S,5R,6R)-2-((3-(tert-butyl)isoxazol-5-yl)methyl)-4-(4-(2,3-difluoro-4-methylphenyl)-1H-1,2,3-triazol-1-yl)-5-hydroxy-6-(hydroxymethyl)tetrahydro-2H-pyran-3-yl ethylcarbamate] | < 4.00 | 7.34 |
| Cc1ccc(-c2cn([C@H]3[C@@H](O)[C@@H](CO)O[C@H](Cc4cc(C(C)(C)C)no4)[C@@H]3OCc3nccn3C)nn2)c(F)c1F [Example 2.52, (2R,3R,4S,5R,6R)-6-((3-(tert-butyl)isoxazol-5-yl)methyl)-4-(4-(2,3-difluoro-4-methylphenyl)-1H-1,2,3-triazol-1-yl)-2-(hydroxymethyl)-5-((1-methyl-1H-imidazol-2-yl)methoxy)tetrahydro-2H-pyran-3-ol] | 5.29 | 7.11 |
| Cc1ccc(-c2cn([C@H]3[C@@H](O)[C@@H](CO)O[C@H](Cc4cc(C(C)(C)C)no4)[C@@H]3OCc3nccs3)nn2)c(F)c1F [Example 2.53, (2R,3R,4S,5R,6R)-6-((3-(tert-butyl)isoxazol-5-yl)methyl)-4-(4-(2,3-difluoro-4-methylphenyl)-1H-1,2,3-triazol-1-yl)-2-(hydroxymethyl)-5-(thiazol-2-ylmethoxy)tetrahydro-2H-pyran-3-ol] | 5.98 | 7.28 |
| Cc1ccc(-c2cn([C@H]3[C@@H](O)[C@@H](CO)O[C@H](Cc4cc(C(C)(C)C)no4)[C@@H]3OCc3cscn3)nn2)c(F)c1F [Example 2.54, (2R,3R,4S,5R,6R)-6-((3-(tert-butyl)isoxazol-5-yl)methyl)-4-(4-(2,3-difluoro-4-methylphenyl)-1H-1,2,3-triazol-1-yl)-2-(hydroxymethyl)-5-(thiazol-4-ylmethoxy)tetrahydro-2H-pyran-3-ol] | 6.23 | 7.28 |
| Cc1ccc(-c2cn([C@H]3[C@@H](O)[C@@H](CO)O[C@H](Cc4cc(C(C)(C)C)no4)[C@@H]3OCc3cnco3)nn2)c(F)c1F [Example 2.55, (2R,3R,4S,5R,6R)-6-((3-(tert-butyl)isoxazol-5-yl)methyl)-4-(4-(2,3-difluoro-4-methylphenyl)-1H-1,2,3-triazol-1-yl)-2-(hydroxymethyl)-5-(oxazol-5-ylmethoxy)tetrahydro-2H-pyran-3-ol] | 5.57 | 6.92 |
| CO[C@@H]1[C@@H](n2cc(-c3cc(F)c(F)c(F)c3)nn2)[C@@H](O)[C@@H](CO)O[C@@H]1Cc1cc(C2(O)CCC2)no1 [Example 2.56, (2R,3R,4S,5R,6R)-6-((3-(1-hydroxycyclobutyl)isoxazol-5-yl)methyl)-2-(hydroxymethyl)-5-methoxy-4-(4-(3,4,5-trifluorophenyl)-1H-1,2,3-triazol-1-yl)tetrahydro-2H-pyran-3-ol] | 5.75 | 6.31 |
| CO[C@@H]1[C@@H](n2cc(-c3ccc(Cl)c(F)c3F)nn2)[C@@H](O)[C@@H](CO)O[C@@H]1Cc1cc(C2(O)CCC2)no1 [Example 2.59, (2R,3R,4S,5R,6R)-4-(4-(4-chloro-2,3-difluorophenyl)-1H-1,2,3-triazol-1-yl)-6-((3-(1-hydroxycyclobutyl)isoxazol-5-yl)methyl)-2-(hydroxymethyl)-5-methoxytetrahydro-2H-pyran-3-ol] | 5.64 | 7.08 |
| CO[C@@H]1[C@@H](n2cc(-c3cc(F)c(F)c(F)c3)nn2)[C@@H](O)[C@@H](CO)O[C@@H]1Cc1cc(C(C)(C)O)no1 [Example 2.60, (2R,3R,4S,5R,6R)-2-(hydroxymethyl)-6-((3-(2-hydroxypropan-2-yl)isoxazol-5-yl)methyl)-5-methoxy-4-(4-(3,4,5-trifluorophenyl)-1H-1,2,3-triazol-1-yl)tetrahydro-2H-pyran-3-ol] | 5.13 | 6.40 |
| CO[C@@H]1[C@@H](n2cc(-c3ccc(F)c(F)c3F)nn2)[C@@H](O)[C@@H](CO)O[C@@H]1Cc1cc(C(C)(C)O)no1 [Example 2.61, (2R,3R,4S,5R,6R)-2-(hydroxymethyl)-6-((3-(2-hydroxypropan-2-yl)isoxazol-5-yl)methyl)-5-methoxy-4-(4-(2,3,4-trifluorophenyl)-1H-1,2,3-triazol-1-yl)tetrahydro-2H-pyran-3-ol] | 6.11 | 6.96 |
| CO[C@@H]1[C@@H](n2cc(-c3ccc(C)c(F)c3F)nn2)[C@@H](O)[C@@H](CO)O[C@@H]1Cc1cc(C(C)(C)O)no1 [Example 2.62, (2R,3R,4S,5R,6R)-4-(4-(2,3-difluoro-4-methylphenyl)-1H-1,2,3-triazol-1-yl)-2-(hydroxymethyl)-6-((3-(2-hydroxypropan-2-yl)isoxazol-5-yl)methyl)-5-methoxytetrahydro-2H-pyran-3-ol] | 5.64 | 7.44 |
| CO[C@@H]1[C@@H](n2cc(-c3ccc(Cl)c(F)c3F)nn2)[C@@H](O)[C@@H](CO)O[C@@H]1Cc1cc(C(C)(C)O)no1 [Example 2.63, (2R,3R,4S,5R,6R)-4-(4-(4-chloro-2,3-difluorophenyl)-1H-1,2,3-triazol-1-yl)-2-(hydroxymethyl)-6-((3-(2-hydroxypropan-2-yl)isoxazol-5-yl)methyl)-5-methoxytetrahydro-2H-pyran-3-ol] | 5.76 | 7.13 |
| CO[C@@H]1[C@@H](n2cc(-c3cc(F)c(F)c(F)c3)nn2)[C@@H](O)[C@@H](CO)O[C@@H]1C[C@@H]1CC(C2CCNCC2)=NO1 [Example 3.06, (2R,3R,4S,5R,6R)-2-(hydroxymethyl)-5-methoxy-6-(((S)-3-(piperidin-4-yl)-4,5-dihydroisoxazol-5-yl)methyl)-4-(4-(3,4,5-trifluorophenyl)-1H-1,2,3-triazol-1-yl)tetrahydro-2H-pyran-3-ol] | 5.68 | 6.55 |
| CO[C@@H]1[C@@H](n2cc(-c3cc(F)c(F)c(F)c3)nn2)[C@@H](O)[C@@H](CO)O[C@@H]1C[C@H]1CC(C2CCNCC2)=NO1 [Example 3.07, (2R,3R,4S,5R,6R)-2-(hydroxymethyl)-5-methoxy-6-(((R)-3-(piperidin-4-yl)-4,5-dihydroisoxazol-5-yl)methyl)-4-(4-(3,4,5-trifluorophenyl)-1H-1,2,3-triazol-1-yl)tetrahydro-2H-pyran-3-ol] | 4.82 | 5.73 |
